The subject of assay [1] is C8166. Nature of the assay: Anti HIV-1 activity was evaluated through C8166/GUN1WT syncytium formation assay at a concentration of 200 ug/mL. The assay is classed as functional, Homo sapiens.
A short description of assay [2]: Anti HIV-1 activity measured in terms of cytotoxicity against NP-2/CD4/GPR1 cells infected with HIV-1 (GUN1V). The assay is classed as functional, cell-based, Homo sapiens.
Assay [3] concerns C8166. The experiment in a line: Anti HIV-1 activity was evaluated through C8166/GUN1WT syncytium formation assay at a concentration of 50 ug/mL. The assay is classed as functional, Homo sapiens.
In assay [4] the test system is C8166. The experiment in a line: Anti HIV-1 activity was evaluated through C8166/GUN1WT syncytium formation assay at a concentration of 1000 ug/mL. It is filed as functional, Homo sapiens.
Assay [5] can be described thus: Anti HIV-1 activity measured in terms of cytotoxicity against NP-2/CD4/CXCR4 cells infected with HIV-1(GUN1WT). The assay is classed as functional, cell-based, Homo sapiens.
The nature of assay [6]: Anti HIV-1 activity measured in terms of cytotoxicity against NP-2/CD4/CXCR4 cells infected with HIV-1 (IIIBstrain). The assay is classed as functional, cell-based, Homo sapiens.
A short description of assay [7]: Anti HIV-1 activity measured in terms of cytotoxicity against NP-2/CD4/CCR5 cells infected with HIV-1(GUN1WT). The assay is classed as functional, cell-based, Homo sapiens.
In assay [8] the test system is C8166. The experiment in a line: Anti HIV-1 activity was evaluated through C8166/GUN1WT syncytium formation assay at a concentration of 0 ug/mL. It is filed as functional, Homo sapiens.

Where a SMILES comes first, the peptide text is derived from it. [ ]: non-standard residue; d: D form. The star is where a group is joined. sY = N[C@@H](Cc1ccc(OS(=O)(=O)O)cc1)C(=O)O; X1 = O=S(=O)(O)O*

By IC50 is commonly meant the concentration that gives 50% inhibition. A low value points to higher potency. For the compound `CC(C)C[C@H](NC(=O)[C@H](CC(=O)OS(=O)(=O)[O-])NC(=O)[C@H](Cc1ccc(OS(=O)(=O)[O-])cc1)NC(=O)[C@H](COS(=O)(=O)[O-])NC(=O)[C@@H](N)Cc1ccc(OS(=O)(=O)[O-])cc1)C(=O)N[C@@H](CC(=O)OS(=O)(=O)[O-])C(=O)N[C@@H](Cc1ccc(OS(=O)(=O)[O-])cc1)C(=O)N[C@@H](Cc1ccc(OS(=O)(=O)[O-])cc1)C(=O)O.[Na+].[Na+].[Na+].[Na+].[Na+].[Na+].[Na+]`, the results for the Activity in assay [1], in assay [3] and in assay [4] were 210, 235 and 191, respectively. For the same compound, the IC50 in assay [2] came to 660 µM.

As for `CCN(CC)CC.CCN(CC)CC.CCN(CC)CC.CCN(CC)CC.CCN(CC)CC.CCN(CC)CC.CCN(CC)CC.CCN(CC)CC.COC(=O)C(=O)N1CCC[C@H]1C(=O)N[C@H](Cc1ccccc1)C(=O)Nc1ccccc1OCC(=O)N[C@@H](Cc1ccc(OS(=O)(=O)O)cc1)C(=O)N[C@@H](COS(=O)(=O)O)C(=O)N[C@@H](Cc1ccc(OS(=O)(=O)O)cc1)C(=O)N[C@@H](CC(=O)OS(=O)(=O)O)C(=O)N[C@@H](CC(C)C)C(=O)N[C@@H](CC(=O)OS(=O)(=O)O)C(=O)N[C@@H](Cc1ccc(OS(=O)(=O)O)cc1)C(=O)N[C@@H](Cc1ccc(OS(=O)(=O)O)cc1)C(=O)O`, the IC50 was found to be 10 µM in assay [5] (Homo sapiens); 10 µM in assay [6] (Homo sapiens); 42 µM in assay [7] (Homo sapiens, CCR5); 4.1 µM in assay [2] (Homo sapiens). Further, the Activity amounted to 66 in assay [1], 219 in assay [3] and 1 in assay [4].

For the compound `CC(C)C[C@H](NC(=O)[C@H](CC(=O)OS(=O)(=O)O)NC(=O)[C@H](Cc1ccc(OS(=O)(=O)O)cc1)NC(=O)[C@H](COS(=O)(=O)O)NC(=O)[C@@H](N)Cc1ccc(OS(=O)(=O)O)cc1)C(=O)N[C@@H](CC(=O)OS(=O)(=O)O)C(=O)N[C@@H](Cc1ccc(OS(=O)(=O)O)cc1)C(=O)N[C@@H](Cc1ccc(OS(=O)(=O)O)cc1)C(=O)O.CCN(CC)CC.CCN(CC)CC.CCN(CC)CC.CCN(CC)CC.CCN(CC)CC.CCN(CC)CC.CCN(CC)CC`, the IC50 in assay [5] was 10 µM; in assay [6] it was 18 µM; in assay [7] (np-2/cd4/ccr5), 42 µM; in assay [2], 4.5 µM. In addition, the Activity in assay [1] came out at 52; in assay [3], 258; in assay [4] it was 4.

As for `CC(C)C[C@H](NC(=O)[C@H](CC(=O)OS(=O)(=O)O)NC(=O)[C@H](Cc1ccc(OS(=O)(=O)O)cc1)NC(=O)[C@H](COS(=O)(=O)O)NC(=O)[C@@H](N)Cc1ccc(OS(=O)(=O)O)cc1)C(=O)N[C@@H](CC(=O)OS(=O)(=O)O)C(=O)N[C@@H](Cc1ccc(OS(=O)(=O)O)cc1)C(=O)N[C@@H](Cc1ccc(OS(=O)(=O)O)cc1)C(=O)O`, the IC50 in assay [5], in assay [6], in assay [7] (np-2/cd4/ccr5) and in assay [2] was greater than 1000 µM throughout. Besides, the Activity worked out at 165 in assay [1], 231 in assay [3] and 124 in assay [4].

For `CCN(CC)CC.CCN(CC)CC.CCN(CC)CC.CCN(CC)CC.CCN(CC)CC.COC(=O)C(=O)N1CCC[C@H]1C(=O)N[C@H](Cc1ccccc1)C(=O)Nc1ccccc1OCC(=O)N[C@@H](Cc1ccc(OS(=O)(=O)O)cc1)C(=O)N[C@@H](CC(=O)OS(=O)(=O)O)C(=O)N[C@@H](CC(C)C)C(=O)N[C@@H](CC(=O)OS(=O)(=O)O)C(=O)N[C@@H](Cc1ccc(OS(=O)(=O)O)cc1)C(=O)N[C@@H](Cc1ccc(OS(=O)(=O)O)cc1)C(=O)O`, the 50% inhibitory concentration (IC50) in assay [5] (Homo sapiens) is 80 µM; in assay [6] (Homo sapiens), 55 µM; in assay [7] (Homo sapiens, CCR5), 60 µM; in assay [2] (Homo sapiens), 35 µM. Further, the values for the Activity in assay [1], in assay [3] and in assay [4] were 88, 182 and 12, respectively.

Regarding `COC(=O)C(=O)N1CCC[C@H]1C(=O)N[C@H](Cc1ccccc1)C(=O)Nc1ccccc1OCC(=O)N[C@@H](Cc1ccc(O)cc1)C(=O)N[C@@H](CC(=O)O)C(=O)N[C@@H](CC(C)C)C(=O)N[C@@H](CC(=O)O)C(=O)N[C@@H](Cc1ccc(O)cc1)C(=O)N[C@@H](Cc1ccc(O)cc1)C(=O)O`, the IC50 in assay [5] (Homo sapiens) came to 100 µM; in assay [6] (Homo sapiens), 150 µM; in assay [7] (Homo sapiens, CCR5) it was 120 µM; in assay [2] (Homo sapiens) it was 100 µM. For the same compound, the Activity was determined as 100 in assay [1], 192 in assay [8], 155 in assay [3] and 55 in assay [4].

In the case of `COC(=O)C(=O)N1CCC[C@H]1C(=O)N[C@H](Cc1ccccc1)C(=O)Nc1ccccc1OCC(=O)N[C@@H](Cc1ccc(O)cc1)C(=O)N[C@@H](CO)C(=O)N[C@@H](Cc1ccc(O)cc1)C(=O)N[C@@H](CC(=O)O)C(=O)N[C@@H](CC(C)C)C(=O)N[C@@H](CC(=O)O)C(=O)N[C@@H](Cc1ccc(O)cc1)C(=O)N[C@@H](Cc1ccc(O)cc1)C(=O)O`, the IC50 in assay [5] (Homo sapiens) is greater than 1000 µM; in assay [6] (Homo sapiens), greater than 1000 µM; in assay [7] (Homo sapiens, CCR5), greater than 1000 µM; in assay [2] (Homo sapiens) it was 660 µM. Besides, the Activity was 222 in assay [1], 215 in assay [3] and 121 in assay [4].

On to `CC(C)C[C@H](NC(=O)[C@H](CC(=O)O)NC(=O)[C@@H](N)Cc1ccc(O)cc1)C(=O)N[C@@H](CC(=O)O)C(=O)N[C@@H](Cc1ccc(O)cc1)C(=O)N[C@@H](Cc1ccc(O)cc1)C(=O)O` (H-YDLDYY-OH), for which the IC50 in assay [5] (Homo sapiens) came out at 180 µM; in assay [6] (Homo sapiens) it was 350 µM; in assay [7] (Homo sapiens, CCR5), 66 µM; in assay [2] (Homo sapiens), 42 µM. In addition, the Activity in assay [1] worked out at 62; in assay [3], 188; in assay [4], 4.

Consider `CC(C)C[C@H](NC(=O)[C@H](CC(=O)O)NC(=O)[C@H](Cc1ccc(O)cc1)NC(=O)[C@H](CO)NC(=O)[C@@H](N)Cc1ccc(O)cc1)C(=O)N[C@@H](CC(=O)O)C(=O)N[C@@H](Cc1ccc(O)cc1)C(=O)N[C@@H](Cc1ccc(O)cc1)C(=O)O` (H-YSYDLDYY-OH), for which the IC50 is greater than 1000 µM in assay [5] (Homo sapiens); greater than 1000 µM in assay [6] (Homo sapiens); greater than 1000 µM in assay [7] (Homo sapiens, CCR5); 660 µM in assay [2] (Homo sapiens). Besides, the figures for the Activity in assay [1], in assay [3] and in assay [4] were 252, 228 and 133, respectively.

For the compound `CC(C)C[C@H](NC(=O)[C@H](CC(=O)OS(=O)(=O)O)NC(=O)[C@@H](N)Cc1ccc(OS(=O)(=O)O)cc1)C(=O)N[C@@H](CC(=O)OS(=O)(=O)O)C(=O)N[C@@H](Cc1ccc(OS(=O)(=O)O)cc1)C(=O)N[C@@H](Cc1ccc(OS(=O)(=O)O)cc1)C(=O)O.CCN(CC)CC.CCN(CC)CC.CCN(CC)CC.CCN(CC)CC.CCN(CC)CC` (H-[sY]D(X1)LD(X1)[sY][sY]-OH), the IC50 was 65 µM in assay [5] (Homo sapiens); 15 µM in assay [6] (Homo sapiens); 55 µM in assay [7] (Homo sapiens, CCR5); 25 µM in assay [2] (Homo sapiens). Moreover, the Activity in assay [1] was 52; in assay [8] it was 215; in assay [3], 193; in assay [4] it was 0.

These data come from ChEMBL document CHEMBL1134813, “Inhibition of HIV-1 infection by synthetic peptide analogues derived from the NH(2)-Terminal extracellular region of GPR1” (Bioorg Med Chem Lett, 2001).
